In brackets after ≈: the same amount, converted by molar mass.
What was measured:
Assay type in all cases: cell-based
LTC4 = test: Inhibition of the LTC4-induced contraction of strips of guinea pig lung; settings: Cavia porcellus; LTC4 3 ng/ml of bath liquid; lung strips pretreated with indomethacin (10^-6 g/ml); substance added at maximum contraction plateau; 37° C.; read-out: IC50 versus LTC4
Description: (§1) The leukotriene-antagonistic action of the substances of the general formula I according to the invention is determined by the inhibition of the leukotriene-induced contraction of strips of guinea pig lung. The method which is used is a modification of the tests described by Foreman, Shelly and Weber (Arch. Int. Pharmacodyn. 278, 193-206 (1985)).
(§2) Guinea pigs are sacrificed by an overdose of ether. The thoracic cavity is opened; the lungs are removed and cut into strips 5 cm long, which are stored in physiological saline. For the measurement, the strips of lung are placed in an organ bath filled with Ringer's solution which is equilibrated at 37° C. and through which carbogen (O2 /CO2 95:5 parts by volume) is passed. The strips are left to equilibrate under a load of 0.5-1 g for 30-60 minutes. The strips of lung are pretreated with indomethacin (10^-6 g/ml of bath liquid) before the test starts.
(§3) The contraction is induced by adding LTC4, LTD4 or LTE4 in a concentration of 3 ng/ml of bath liquid. The test substances are administered therapeutically into the bath, after the maximum contraction plateau has been reached, in several concentrations and at time intervals of 10 minutes. 6-12 strips of lung are used for each concentration of the test substances.
(§4) The concentrations of the test substances at which the contraction is reduced by 50% (IC50) are indicated in μg/ml.

LTE4 = test: Inhibition of the LTE4-induced contraction of strips of guinea pig lung; settings: Cavia porcellus; LTE4 3 ng/ml of bath liquid; lung strips pretreated with indomethacin (10^-6 g/ml); substance added at maximum contraction plateau; 37° C.; read-out: IC50 versus LTE4
Description: as §1, §2, §3, §4

LTD4 = test: Inhibition of the LTD4-induced contraction of strips of guinea pig lung; settings: Cavia porcellus; LTD4 3 ng/ml of bath liquid; lung strips pretreated with indomethacin (10^-6 g/ml); substance added at maximum contraction plateau; 37° C.; read-out: IC50 versus LTD4
Description: as §1, §2, §3, §4

SMILES | IC50 (LTC4) | IC50 (LTE4) | IC50 (LTD4)
COC(=O)COC[C@@H](O)[C@@H](Sc1cccc(OC)c1)c1ccccc1 (racemic) [Compound A, Methyl (5RS,6SR)-5-hydroxy-6-(3-methoxyphenylthio)-6-phenyl-3-oxahexanoate] | 0.6 µg/mL (≈ 1.66 µM) | 1 µg/mL (≈ 2.76 µM) | 0.3 µg/mL (≈ 0.828 µM)
COC(=O)CSC[C@@H](O)[C@@H](Sc1cccc(OC)c1)c1ccccc1 (racemic) [Compound B, Methyl (5RS,6SR)-5-hydroxy-6-(3-methoxyphenylthio)-6-phenyl-3-thiahexanoate] | 0.6 to 1 µg/mL (≈ 1.59 to 2.64 µM) | 1 µg/mL (≈ 2.64 µM) | 0.6 µg/mL (≈ 1.59 µM)
CCCS[C@@H](c1ccccc1)[C@H](O)COCC(=O)OC (racemic) [Compound D, Methyl (5RS,6SR)-5-hydroxy-6-phenyl-3-oxa-7-thiadecanoate] | > 10 µg/mL | > 10 µg/mL | 0.5 µg/mL (≈ 1.68 µM)
CCCS[C@@H](c1ccccc1)[C@H](O)CSCC(=O)OC (racemic) [Compound E, Methyl (5RS,6SR)-5-hydroxy-6-phenyl-3,7-dithiadecanoate] | 6 µg/mL (≈ 19.1 µM) | 6 to 10 µg/mL (≈ 19.1 to 31.8 µM) | 0.6 to 1 µg/mL (≈ 1.91 to 3.18 µM)
COC(=O)CSC[C@H](O)[C@H](Sc1cccc(OC)c1)c1ccccc1 [Compound C, Methyl (5 S,6 R)(-)-5-hydroxy-6-(3-methoxyphenylthio)-6-phenyl-3-thiahexanoate] | 0.3 to 0.6 µg/mL (≈ 0.793 to 1.59 µM) | 0.3 to 0.6 µg/mL (≈ 0.793 to 1.59 µM) | 0.1 µg/mL (≈ 0.264 µM)

Reference: patent US4851440A, “Leukotriene antagonists, processes for the preparation thereof, the use thereof for the treatment of diseases, and precursors” (Hoechst Aktiengesellschaft, priority 1987, dated 1989)
